# From US20250367132A1, “SOLID LIPID NANOPARTICLES FOR ENCAPSULATION AND DELIVERY OF BIOACTIVE COMPOUNDS AND METHODS OF MAKING THE SAME” (Yubeck, Inc., priority 2024, published 2025)
# Legend:
# [1] = Dynamic light scattering (DLS): mean particle size and polydispersity index; format: physicochemical
# Experimental: SLNs are characterized by particle size distribution, polydispersity index (PDI), surface charge (zeta potential), encapsulation efficiency (EE %), and loading capacity (LC %), all of which influence their stability, bioavailability, and controlled release properties. Particle size distribution is measured using dynamic light scattering (DLS), nanoparticle tracking analysis (NTA), or any equivalent method, ensuring SLN sizes range from 10 nm approximately 1000 nm. PDI, measured by DLS or NTA indicates uniformity of particle size distribution. Zeta potential, measured using […], electrophoretic light scattering (ELS), or an equivalent method, must have an absolute value of ≥25 mV, ensuring sufficient electrostatic repulsion to maintain colloidal stability. Encapsulation efficiency (EE %) and loading capacity (LC %) are measured using UV-Vis Spectroscopy, high performance liquid chromatography, or liquid chromatography mass spectrometry (LC-MS), amino acid analysis (AAA), or any equivalent method, with target values defined for each bioactive compound.
# An example of the manufacturing process of whole Spirulina SLNs is disclosed below. In accordance with an aspect of the present invention, palmitic acid is dissolved in 100% ethanol (1.5 mg/mL) and heated to 70° C. Natural and sustainable ingredients that can be used as alternatives to palmitic acid, include stearic acid, behenic acid, lauric acid, cetyl alcohol, cocoa butter, shea butter, carnauba wax, candelilla wax, beeswax, and glycerol monostearate (GMS). Other natural lipids, such as oleic acid, linoleic acid, alpha-linolenic acid, gamma-linolenic acid, triglycerides such as medium-chain triglycerides (MCTs) or long-chain triglycerides (LCTs), and natural oils such as coconut oil, olive oil, and sunflower oil. Additional naturally derived lipid components such as 1-monolaurin, phosphatidylcholine, and phosphatidylethanolamine may also be used. […] The Spirulina SLNs are quantified using […] to measure the mean particle, PDI, and zeta potential. […]
# [2] = cited from earlier work
Compound,"PDI ([1]; non-encapsulated, in solution) [%]","PDI ([1]; unencapsulated, before SLN fabrication)","mean particle size (initial diameter) ([1]; unencapsulated, in ethanol, before SLN fabrication) [nm]","Acceptable Daily Intake (ADI) ([2]; FDA, color additive petitions)",No Observed Effect Level (NOEL) ([2]; GRAS submission)
"C=C1CC[C@H](O)C/C1=C/C=C1\CCC[C@]2(C)[C@@H]([C@H](C)CCCC(C)C)CC[C@@H]12 [vitamin D3, cholecalciferol]",0.10±0.01,10.17±2.26,124.6±0.1,–,–
phycocyanin,–,–,–,1.0-1.8 g/p/d,108-184.5 g/p/d
